pIC50: −log10 of the molar value. Each block holds one molecule with its values, some of them ahead of it. The source made the active and inactive calls. The rule behind the calls is not given here.
What was measured:
[1] = biological target: T1, Epidermal growth factor receptor (Homo sapiens, UniProt P00533); test: Inhibition of EGFR using poly(Glu,Tyr)4:1 as substrate and [gamma33P]ATP at 1 uM after 60 mins by scintillation counting
[2] = biological target: T1, Epidermal growth factor receptor; test: Inhibition of EGFR using poly(Glu,Tyr)4:1 as substrate and [gamma33P]ATP after 60 mins by scintillation counting
[3] = biological target: Receptor tyrosine-protein kinase erbB-2 (Homo sapiens) (UniProt P04626); test: Inhibition of Erbb2 using poly(Glu,Tyr)4:1 as substrate and [gamma33P]ATP at 1 uM after 60 mins by scintillation counting
[4] = biological target: Vascular endothelial growth factor receptor 2 (Homo sapiens) (UniProt P35968); test: Inhibition of VEGFR2 using poly(Glu,Tyr)4:1 as substrate and [gamma33P]ATP at 1 uM after 60 mins by scintillation counting
[5] = biological target: Tyrosine-protein kinase ABL1 (Homo sapiens) (UniProt P00519); test: Inhibition of ABL1 using poly(Ala, Glu, Lys, Tyr) as substrate and [gamma33P]ATP at 1 uM after 60 mins by scintillation counting
[6] = biological target: Hepatocyte growth factor receptor (Homo sapiens) (UniProt P08581); test: Inhibition of MET using poly(Ala, Glu, Lys, Tyr) as substrate and [gamma33P]ATP at 1 uM after 60 mins by scintillation counting
[7] = Cytotoxicity against human BXF 1218L cells after 4 days by propidium iodide staining-based fluorometric analysis; assay type: functional, cell-based; details: 96 h
[8] = Cytotoxicity against human BXF 1352L cells after 4 days by propidium iodide staining-based fluorometric analysis; assay type: functional, cell-based; details: 96 h
[9] = Cytotoxicity against human BXF T24 cells after 4 days by propidium iodide staining-based fluorometric analysis; assay type: functional, cell-based; details: T-24, 96 h
[10] = Cytotoxicity against human CXF 269L cells after 4 days by propidium iodide staining-based fluorometric analysis; assay type: functional, cell-based; details: 96 h
[11] = Cytotoxicity against human DIFI cells after 4 days by propidium iodide staining-based fluorometric analysis; assay type: functional, cell-based; details: 96 h
[12] = system: HCT-116; test: Cytotoxicity against human HCT116 cells after 4 days by propidium iodide staining-based fluorometric analysis; assay type: functional, cell-based; details: HCT-116, 96 h
[13] = system: HT-29; test: Cytotoxicity against human HT-29 cells after 4 days by propidium iodide staining-based fluorometric analysis; assay type: functional, cell-based; details: HT-29, 96 h
[14] = system: RKO; test: Cytotoxicity against human RKO cells after 4 days by propidium iodide staining-based fluorometric analysis; assay type: functional, cell-based; details: 96 h
[15] = Cytotoxicity against human GXF251L cells after 4 days by propidium iodide staining-based fluorometric analysis; assay type: functional, cell-based; details: GXF 251L, 96 h
[16] = system: MKN-45; test: Cytotoxicity against human MKN45 cells after 4 days by propidium iodide staining-based fluorometric analysis; assay type: functional, cell-based; details: MKN-45, 96 h
[17] = system: CAL-27; test: Cytotoxicity against human CAL27 cells after 4 days by propidium iodide staining-based fluorometric analysis; assay type: functional, cell-based; details: CAL-27, 96 h
[18] = Cytotoxicity against human LIXF 575L cells after 4 days by propidium iodide staining-based fluorometric analysis; assay type: functional, cell-based; details: 96 h
[19] = system: NCI-H460; test: Cytotoxicity against human H460 cells after 4 days by propidium iodide staining-based fluorometric analysis; assay type: functional, cell-based; details: NCI-H460, 96 h
[20] = Cytotoxicity against human LXFA 289L cells after 4 days by propidium iodide staining-based fluorometric analysis; assay type: functional, cell-based; details: 96 h
[21] = Cytotoxicity against human LXFA 526L cells after 4 days by propidium iodide staining-based fluorometric analysis; assay type: functional, cell-based; details: 96 h
[22] = Cytotoxicity against human LXFA 629L cells after 4 days by propidium iodide staining-based fluorometric analysis; assay type: functional, cell-based; details: 96 h
[23] = Cytotoxicity against human LXFL 1121L cells after 4 days by propidium iodide staining-based fluorometric analysis; assay type: functional, cell-based; details: 96 h
[24] = Cytotoxicity against human LXFL 529L cells after 4 days by propidium iodide staining-based fluorometric analysis; assay type: functional, cell-based; details: 96 h
[25] = Cytotoxicity against human MAXF 401NL cells after 4 days by propidium iodide staining-based fluorometric analysis; assay type: functional, cell-based; details: 96 h
[26] = system: MCF7; test: Cytotoxicity against human MCF7 cells after 4 days by propidium iodide staining-based fluorometric analysis; assay type: functional, cell-based; details: MCF7, 96 h
[27] = Cytotoxicity against human MDA231 cells after 4 days by propidium iodide staining-based fluorometric analysis; assay type: functional, cell-based; details: MDA-MB-231, 96 h
[28] = Cytotoxicity against human MEXF 1341L cells after 4 days by propidium iodide staining-based fluorometric analysis; assay type: functional, cell-based; details: 96 h
[29] = Cytotoxicity against human MEXF 276L cells after 4 days by propidium iodide staining-based fluorometric analysis; assay type: functional, cell-based; details: MEXF276L, 96 h
[30] = Cytotoxicity against human MEXF 462NL cells after 4 days by propidium iodide staining-based fluorometric analysis; assay type: functional, cell-based; details: 96 h
[31] = Cytotoxicity against human OVXF 899L cells after 4 days by propidium iodide staining-based fluorometric analysis; assay type: functional, cell-based; details: 96 h
[32] = system: OVCAR-3; test: Cytotoxicity against human OVCAR3 cells after 4 days by propidium iodide staining-based fluorometric analysis; assay type: functional, cell-based; details: OVCAR-3, 96 h
[33] = Cytotoxicity against human PAXF 1657L cells after 4 days by propidium iodide staining-based fluorometric analysis; assay type: functional, cell-based; details: 96 h
[34] = Cytotoxicity against human PAXF 546L cells after 4 days by propidium iodide staining-based fluorometric analysis; assay type: functional, cell-based; details: 96 h
[35] = system: PANC-1; test: Cytotoxicity against human PANC1 cells after 4 days by propidium iodide staining-based fluorometric analysis; assay type: functional, cell-based; details: PANC-1, 96 h
[36] = system: CWR22R; test: Cytotoxicity against human 22Rv1 cells after 4 days by propidium iodide staining-based fluorometric analysis; assay type: functional, cell-based; details: 22Rv1, 96 h
[37] = system: DU-145; test: Cytotoxicity against human DU145 cells after 4 days by propidium iodide staining-based fluorometric analysis; assay type: functional, cell-based; details: DU-145, 96 h
[38] = system: LNCaP; test: Cytotoxicity against human LNCAP cells after 4 days by propidium iodide staining-based fluorometric analysis; assay type: functional, cell-based; details: 96 h
[39] = Cytotoxicity against human PC3M cells after 4 days by propidium iodide staining-based fluorometric analysis; assay type: functional, cell-based; details: PC-3M, 96 h
[40] = Cytotoxicity against human PXF 1118L cells after 4 days by propidium iodide staining-based fluorometric analysis; assay type: functional, cell-based; details: 96 h
[41] = Cytotoxicity against human PXF 1752L cells after 4 days by propidium iodide staining-based fluorometric analysis; assay type: functional, cell-based; details: 96 h
[42] = Cytotoxicity against human PXF 698L cells after 4 days by propidium iodide staining-based fluorometric analysis; assay type: functional, cell-based; details: 96 h
[43] = Cytotoxicity against human RXF 1781L cells after 4 days by propidium iodide staining-based fluorometric analysis; assay type: functional, cell-based; details: 96 h
[44] = Cytotoxicity against human RXF 393NL cells after 4 days by propidium iodide staining-based fluorometric analysis; assay type: functional, cell-based; details: 96 h
[45] = Cytotoxicity against human RXF 486L cells after 4 days by propidium iodide staining-based fluorometric analysis; assay type: functional, cell-based; details: 96 h
[46] = system: SAOS-2; test: Cytotoxicity against human Saos2 cells after 4 days by propidium iodide staining-based fluorometric analysis; assay type: functional, cell-based; details: SAOS-2, 96 h, read-out: IC50
[47] = system: TE-671; test: Cytotoxicity against human TE671 cells after 4 days by propidium iodide staining-based fluorometric analysis; assay type: functional, cell-based; details: TE-671, 96 h
[48] = Cytotoxicity against human UXF 1138L cells after 4 days by propidium iodide staining-based fluorometric analysis; assay type: functional, cell-based; details: 96 h
[49] = biological target: T1, Epidermal growth factor receptor; test: Inhibition of EGFR autophosphorylation in EGF-stimulated human A431 cells after 1 hr by immunoblotting; assay type: cell-based, A-431

Chain of Receptor tyrosine-protein kinase erbB-2 (Homo sapiens) (P04626 whole entry): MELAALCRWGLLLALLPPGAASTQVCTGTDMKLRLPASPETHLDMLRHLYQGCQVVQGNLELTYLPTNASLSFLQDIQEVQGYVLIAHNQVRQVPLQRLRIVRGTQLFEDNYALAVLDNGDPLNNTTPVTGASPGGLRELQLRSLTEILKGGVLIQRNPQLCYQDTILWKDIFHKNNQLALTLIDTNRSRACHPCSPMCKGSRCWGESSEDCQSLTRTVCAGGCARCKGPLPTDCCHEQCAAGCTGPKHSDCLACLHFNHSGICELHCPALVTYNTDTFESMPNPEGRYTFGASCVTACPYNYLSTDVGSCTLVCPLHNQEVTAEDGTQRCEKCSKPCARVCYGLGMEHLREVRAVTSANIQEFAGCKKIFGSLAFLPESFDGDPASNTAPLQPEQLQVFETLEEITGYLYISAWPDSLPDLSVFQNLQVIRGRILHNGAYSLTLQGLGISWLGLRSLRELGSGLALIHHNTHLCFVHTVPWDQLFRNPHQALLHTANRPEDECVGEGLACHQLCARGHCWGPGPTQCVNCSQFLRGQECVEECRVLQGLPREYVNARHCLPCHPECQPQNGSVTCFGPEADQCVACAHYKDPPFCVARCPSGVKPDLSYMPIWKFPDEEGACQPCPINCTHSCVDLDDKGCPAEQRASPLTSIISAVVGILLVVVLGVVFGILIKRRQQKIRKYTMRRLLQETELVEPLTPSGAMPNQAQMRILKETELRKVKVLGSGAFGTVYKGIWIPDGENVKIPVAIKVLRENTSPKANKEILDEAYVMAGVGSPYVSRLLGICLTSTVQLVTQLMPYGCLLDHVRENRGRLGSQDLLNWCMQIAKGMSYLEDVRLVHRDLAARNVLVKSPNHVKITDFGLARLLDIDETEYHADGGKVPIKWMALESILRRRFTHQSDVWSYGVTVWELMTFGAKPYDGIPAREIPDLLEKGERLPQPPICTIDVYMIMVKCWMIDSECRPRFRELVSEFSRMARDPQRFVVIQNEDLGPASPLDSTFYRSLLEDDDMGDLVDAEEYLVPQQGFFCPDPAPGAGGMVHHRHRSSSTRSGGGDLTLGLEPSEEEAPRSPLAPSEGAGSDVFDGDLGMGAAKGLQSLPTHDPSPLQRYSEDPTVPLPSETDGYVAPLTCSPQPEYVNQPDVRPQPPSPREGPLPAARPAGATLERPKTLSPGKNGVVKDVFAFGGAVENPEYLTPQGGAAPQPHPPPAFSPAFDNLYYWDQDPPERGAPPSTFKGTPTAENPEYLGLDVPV
Chain of Vascular endothelial growth factor receptor 2 (Homo sapiens) (P35968 whole entry): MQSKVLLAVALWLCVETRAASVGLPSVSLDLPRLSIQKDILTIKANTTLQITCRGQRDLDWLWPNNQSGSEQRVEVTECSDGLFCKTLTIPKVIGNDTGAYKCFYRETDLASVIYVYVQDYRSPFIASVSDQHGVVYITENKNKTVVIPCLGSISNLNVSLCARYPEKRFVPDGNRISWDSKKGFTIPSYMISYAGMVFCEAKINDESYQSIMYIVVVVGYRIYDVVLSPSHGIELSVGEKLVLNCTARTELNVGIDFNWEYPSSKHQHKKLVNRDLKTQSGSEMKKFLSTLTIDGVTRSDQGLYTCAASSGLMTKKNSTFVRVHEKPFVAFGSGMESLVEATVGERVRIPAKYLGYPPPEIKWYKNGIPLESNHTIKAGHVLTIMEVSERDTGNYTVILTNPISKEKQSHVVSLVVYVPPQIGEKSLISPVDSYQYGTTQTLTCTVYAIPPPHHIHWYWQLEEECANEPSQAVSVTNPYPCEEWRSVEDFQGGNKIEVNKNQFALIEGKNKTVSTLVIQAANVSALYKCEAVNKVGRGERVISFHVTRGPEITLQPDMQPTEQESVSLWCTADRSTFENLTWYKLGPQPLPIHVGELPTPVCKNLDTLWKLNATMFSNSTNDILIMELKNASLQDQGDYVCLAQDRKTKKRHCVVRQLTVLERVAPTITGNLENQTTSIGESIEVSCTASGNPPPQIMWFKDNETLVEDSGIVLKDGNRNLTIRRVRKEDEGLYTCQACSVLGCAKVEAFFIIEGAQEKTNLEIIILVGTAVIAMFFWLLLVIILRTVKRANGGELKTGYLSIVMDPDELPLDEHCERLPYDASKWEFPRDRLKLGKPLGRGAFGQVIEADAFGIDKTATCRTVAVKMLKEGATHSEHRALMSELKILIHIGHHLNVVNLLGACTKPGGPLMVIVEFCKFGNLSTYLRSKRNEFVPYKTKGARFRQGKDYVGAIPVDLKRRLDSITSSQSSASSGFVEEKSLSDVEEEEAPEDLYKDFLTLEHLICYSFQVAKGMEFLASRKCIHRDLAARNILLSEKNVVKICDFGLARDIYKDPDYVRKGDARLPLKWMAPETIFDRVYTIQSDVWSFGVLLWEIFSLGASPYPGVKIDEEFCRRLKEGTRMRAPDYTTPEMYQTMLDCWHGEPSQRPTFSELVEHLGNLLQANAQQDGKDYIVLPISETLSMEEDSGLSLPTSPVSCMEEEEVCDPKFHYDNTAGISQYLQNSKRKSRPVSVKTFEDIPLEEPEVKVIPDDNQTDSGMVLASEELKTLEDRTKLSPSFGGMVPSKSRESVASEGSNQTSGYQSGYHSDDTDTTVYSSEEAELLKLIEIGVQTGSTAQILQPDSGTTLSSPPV
T1 sequence (P00533 whole entry): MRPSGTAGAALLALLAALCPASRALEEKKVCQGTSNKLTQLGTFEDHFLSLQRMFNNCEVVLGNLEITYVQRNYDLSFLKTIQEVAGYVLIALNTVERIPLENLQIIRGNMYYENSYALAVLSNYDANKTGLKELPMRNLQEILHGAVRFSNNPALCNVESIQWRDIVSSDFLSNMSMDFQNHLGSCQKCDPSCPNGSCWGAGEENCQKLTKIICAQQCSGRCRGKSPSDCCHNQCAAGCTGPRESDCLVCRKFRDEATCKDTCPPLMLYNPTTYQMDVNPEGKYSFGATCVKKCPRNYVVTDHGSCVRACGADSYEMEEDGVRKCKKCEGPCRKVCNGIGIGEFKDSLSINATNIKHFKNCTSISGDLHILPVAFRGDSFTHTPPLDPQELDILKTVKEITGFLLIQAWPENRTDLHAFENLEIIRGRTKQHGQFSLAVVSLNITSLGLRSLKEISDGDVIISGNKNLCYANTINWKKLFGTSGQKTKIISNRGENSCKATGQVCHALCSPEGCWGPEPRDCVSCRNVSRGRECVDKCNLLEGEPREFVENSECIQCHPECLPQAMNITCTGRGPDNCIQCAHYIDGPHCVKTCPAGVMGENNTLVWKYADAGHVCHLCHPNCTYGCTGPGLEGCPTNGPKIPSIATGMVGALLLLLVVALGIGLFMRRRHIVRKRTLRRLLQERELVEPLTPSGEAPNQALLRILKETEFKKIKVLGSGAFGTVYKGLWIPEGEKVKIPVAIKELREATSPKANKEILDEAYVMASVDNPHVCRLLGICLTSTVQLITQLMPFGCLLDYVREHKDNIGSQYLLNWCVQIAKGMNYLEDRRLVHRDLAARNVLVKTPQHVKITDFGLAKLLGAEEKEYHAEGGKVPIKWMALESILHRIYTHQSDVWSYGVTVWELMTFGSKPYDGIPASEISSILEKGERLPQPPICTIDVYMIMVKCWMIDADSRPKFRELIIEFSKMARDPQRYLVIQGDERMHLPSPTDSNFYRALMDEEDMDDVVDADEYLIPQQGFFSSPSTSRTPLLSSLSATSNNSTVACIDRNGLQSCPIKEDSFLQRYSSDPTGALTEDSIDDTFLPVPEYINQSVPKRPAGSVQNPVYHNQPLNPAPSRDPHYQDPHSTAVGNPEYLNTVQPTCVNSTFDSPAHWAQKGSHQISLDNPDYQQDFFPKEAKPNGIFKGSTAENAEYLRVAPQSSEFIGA
Chain of Tyrosine-protein kinase ABL1 (Homo sapiens) (P00519 whole entry): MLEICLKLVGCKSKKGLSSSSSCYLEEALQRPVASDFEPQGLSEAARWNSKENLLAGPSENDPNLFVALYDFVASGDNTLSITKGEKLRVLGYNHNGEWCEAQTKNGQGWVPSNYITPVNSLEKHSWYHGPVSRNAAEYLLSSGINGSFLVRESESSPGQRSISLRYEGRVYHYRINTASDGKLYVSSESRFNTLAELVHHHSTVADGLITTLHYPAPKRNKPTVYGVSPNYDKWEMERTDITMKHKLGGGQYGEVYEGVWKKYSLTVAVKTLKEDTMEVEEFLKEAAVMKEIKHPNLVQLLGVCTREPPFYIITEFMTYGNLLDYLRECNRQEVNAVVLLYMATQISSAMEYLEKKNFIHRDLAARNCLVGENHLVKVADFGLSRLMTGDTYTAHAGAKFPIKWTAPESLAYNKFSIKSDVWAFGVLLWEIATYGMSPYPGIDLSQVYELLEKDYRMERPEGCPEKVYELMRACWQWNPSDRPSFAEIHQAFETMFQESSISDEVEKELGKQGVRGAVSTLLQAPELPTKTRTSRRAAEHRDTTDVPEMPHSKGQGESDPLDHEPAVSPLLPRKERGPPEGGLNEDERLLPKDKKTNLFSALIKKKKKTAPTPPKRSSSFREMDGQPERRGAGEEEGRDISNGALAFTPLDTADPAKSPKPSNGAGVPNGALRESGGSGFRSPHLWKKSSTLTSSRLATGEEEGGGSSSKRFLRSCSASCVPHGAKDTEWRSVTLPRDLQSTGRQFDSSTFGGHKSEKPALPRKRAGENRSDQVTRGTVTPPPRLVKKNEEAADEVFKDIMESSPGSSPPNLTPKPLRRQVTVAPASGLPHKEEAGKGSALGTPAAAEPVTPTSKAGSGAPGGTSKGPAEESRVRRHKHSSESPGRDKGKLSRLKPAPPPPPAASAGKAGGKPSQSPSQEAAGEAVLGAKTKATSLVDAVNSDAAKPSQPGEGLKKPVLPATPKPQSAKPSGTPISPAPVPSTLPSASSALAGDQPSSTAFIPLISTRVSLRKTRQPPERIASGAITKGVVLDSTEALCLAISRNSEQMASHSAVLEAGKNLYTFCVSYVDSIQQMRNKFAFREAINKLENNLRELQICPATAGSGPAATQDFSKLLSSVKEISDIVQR

inhibition [1]: 100% | pIC50 [2]: 8.26 | inhibition [3]: 80% | inhibition [4]: 15% | inhibition [5]: inactive | inhibition [6]: inactive
Compound: O=C(c1cc2ccccc2[nH]1)c1cc2c(Nc3ccc(F)c(Cl)c3)ncnc2s1
pIC50 [7]: 5.04 | pIC50 [8]: 4.95 | pIC50 [9]: 4.94 | pIC50 [10]: 4.97 | pIC50 [11]: 5.86 | pIC50 [12]: 5.08 | pIC50 [13]: 5.11 | pIC50 [14]: 5.14 | pIC50 [15]: 5.56 | pIC50 [16]: 4.90 | pIC50 [17]: 5.58 | pIC50 [18]: 5.09 | pIC50 [19]: 5.24 | pIC50 [20]: 5.18 | pIC50 [21]: 4.97 | pIC50 [22]: 5.31 | pIC50 [23]: 5.01 | pIC50 [24]: 5.06 | pIC50 [25]: 5.41 | pIC50 [26]: 5.16 | pIC50 [27]: 5.09 | pIC50 [28]: 4.96 | pIC50 [29]: 4.99 | pIC50 [30]: 5.09 | pIC50 [31]: 5.25 | pIC50 [32]: 5.07 | pIC50 [33]: 4.75 | pIC50 [34]: 4.93 | pIC50 [35]: 5.15 | pIC50 [36]: 5.26 | pIC50 [37]: 5.36 | pIC50 [38]: 5.21 | pIC50 [39]: 5.24 | pIC50 [40]: 4.75 | pIC50 [41]: 4.87 | pIC50 [42]: 4.85 | pIC50 [43]: 5.04 | pIC50 [44]: 4.93 | pIC50 [45]: 5.26 | pIC50 [46]: 4.94 | pIC50 [47]: 4.85 | pIC50 [48]: 5.35

inhibition [1]: 99% | pIC50 [2]: 7.78 | inhibition [3]: 73% | inhibition [4]: 20% | inhibition [5]: inactive | inhibition [6]: inactive | pIC50 [49]: 6.52
Compound: O=C(c1cc2ccccc2[nH]1)c1cc2c(Nc3cccc(Cl)c3)ncnc2s1
pIC50 [7]: 4.67 | pIC50 [8]: 4.80 | pIC50 [9]: 4.63 | pIC50 [10]: 4.54 | pIC50 [11]: 5.74 | pIC50 [12]: 4.72 | pIC50 [13]: 4.75 | pIC50 [14]: 4.74 | pIC50 [15]: 5.37 | pIC50 [16]: 4.69 | pIC50 [17]: 5.52 | pIC50 [18]: 4.74 | pIC50 [19]: 4.75 | pIC50 [20]: 5.33 | pIC50 [21]: 4.87 | pIC50 [22]: 5.22 | pIC50 [23]: 4.80 | pIC50 [24]: 5.12 | pIC50 [25]: 5.14 | pIC50 [26]: 4.90 | pIC50 [27]: 4.63 | pIC50 [28]: 4.70 | pIC50 [29]: 4.57 | pIC50 [30]: 4.62 | pIC50 [31]: 4.86 | pIC50 [32]: 4.82 | pIC50 [33]: 4.32 | pIC50 [34]: 4.60 | pIC50 [35]: 4.83 | pIC50 [36]: 4.85 | pIC50 [37]: 5.04 | pIC50 [38]: 4.95 | pIC50 [39]: 4.85 | pIC50 [40]: 4.30 | pIC50 [41]: 4.51 | pIC50 [42]: 4.51 | pIC50 [43]: 4.70 | pIC50 [44]: 4.58 | pIC50 [45]: 4.88 | pIC50 [46]: 4.71 | pIC50 [47]: 4.61 | pIC50 [48]: 5.07

inhibition [1]: 96% | pIC50 [2]: 8.23 | inhibition [3]: 60% | inhibition [4]: 55% | inhibition [5]: inactive | inhibition [6]: inactive
Compound: COc1ccc2[nH]c(C(=O)c3cc4c(Nc5ccc(F)c(Cl)c5)ncnc4s3)cc2c1
pIC50 [7]: 4.81 | pIC50 [8]: 4.61 | pIC50 [9]: 4.75 | pIC50 [10]: 4.93 | pIC50 [11]: 6.00 | pIC50 [12]: 4.92 | pIC50 [13]: 5.01 | pIC50 [14]: 4.80 | pIC50 [15]: 5.41 | pIC50 [16]: 4.42 | pIC50 [17]: 5.80 | pIC50 [18]: 5.03 | pIC50 [19]: 4.82 | pIC50 [20]: 5.15 | pIC50 [21]: 4.55 | pIC50 [22]: 5.30 | pIC50 [23]: 5.05 | pIC50 [24]: 4.83 | pIC50 [25]: 5.38 | pIC50 [26]: 4.95 | pIC50 [27]: 4.77 | pIC50 [28]: 4.84 | pIC50 [29]: 4.51 | pIC50 [30]: 4.78 | pIC50 [31]: 4.72 | pIC50 [32]: 4.61 | pIC50 [33]: 4.61 | pIC50 [34]: 4.85 | pIC50 [35]: 4.55 | pIC50 [36]: 4.95 | pIC50 [37]: 4.71 | pIC50 [38]: 4.49 | pIC50 [39]: 4.33 | pIC50 [40]: 4.20 | pIC50 [41]: 4.44 | pIC50 [42]: 4.57 | pIC50 [43]: 4.52 | pIC50 [44]: 4.68 | pIC50 [45]: 4.99 | pIC50 [46]: 4.52 | pIC50 [47]: 4.26 | pIC50 [48]: 5.31

Source: ChEMBL document CHEMBL1926681, “Novel inhibitors of epidermal growth factor receptor: (4-(Arylamino)-7H-pyrrolo[2,3-d]pyrimidin-6-yl)(1H-indol-2-yl)methanones and (1H-indol-2-yl)(4-(phenylamino)thieno[2,3-d]pyrimidin-6-yl)methanones” (Bioorg Med Chem, 2012)
